According to US20240254083A1, “HETEROCYCLIC TRPML1 AGONISTS AND USES THEREOF” (Libra Therapeutics, Inc., priority 2021, published 2024):

Assays:
[1] = tested on: autophagy reporter Rosella stably expressed in HeK293 cell line; experiment: Autophagy assay (Rosella-LC3 reporter, imaging); format: cell-based; settings: Homo sapiens; HeK293 cells with Rosella reporter (LC3 tag), 18 hours incubation, reference Torin-1; read-out: Autophagy pEC50 (converted)
Experimental: • Tyrode's buffer with 2 mM Ca^2+ in-house solution (130 mM NaCl, 5 mM KCl, 2 mM CaCl2), 1 mM MgCl2, 5 mM NaHCO3, 20 mM HEPES in water at pH 7.4; sterile filtered) • DMSO (Sigma) • Bis-benzimide H 33342 trihydrochloride (Hoechst 33342; Sigma-Aldrich) • Reference molecule (agonist): Torin-1, (#4247, Tocris) stock 1.2 mM in DMSO, stored at −20° C. Reporter of Autophagy and Cell line
Reporter Rosella: a fluorescent-based chimera constitutes by two fluorescent proteins, Green and Red variants, acting as a bimodal indicator of pH. The green fluorescent variant of the constructs is pH sensitive (pKa=6.9) while the red variant is not pH sensitive and it is used as reference. The reporter is fused to sequence for autophagosome localization (LC3 tag).
The reporter Rosella have been stably expressed in HeK293 cell line and used as read-out.
Experiments have been performed in 384 MTP poly-lysine coated well format. Cells have been seeded in 384-w at a density of 6000 cells/well in 25 μl/well complete growth medium without antibiotics. Twenty-four hours later, cells have been treated with compounds and incubated for further 18 hours. Then the cells have been imaged and assayed for the response to various compounds using the reporter for autophagy expressed in the cells as readout.
The experiments were performed in a 384-well format according to the following procedure: • 24 h after seeding, cells were incubated with compounds at the desired concentration, and with the reference molecule (agonist) Torin-1 at a top concentration of 1 μM (max signal), for 18 hours at 37° C. and 5% CO2. The final percentage of DMSO was 0.3% in all the conditions. • Then the culture medium was carefully removed to avoid cells detachment and to discard red phenol into the medium and that can interfere with the measurements. • Staining of the nuclei was obtained by incubating the cells with 8 μM/well of Hoechst 3342 in standard Tyrode's buffer for 20 min at RT • Then the cells were carefully washed two times with standard Tyrode's buffer • Finally, the samples were acquired by recording three fluorescence emission channels (green, red and blue) at 20× magnification and with at least 3-4 fields of view per well in an Operetta CLS microscope (PerkinElmer). • Image analysis was performed by using Harmony software (PerkinElmer). The image analysis involved the following steps: flat-field illumination correction, nuclei segmentation, cell segmentations and identification of vesicles/granules within the cytosol compartments and representing the autophagy vesicles. Measurements of signal intensity ratio (Green to Red) and number of autophagy vesicles per cells were used to obtain information on the effects of compounds on the autophagy flux. • Data from image analysis measurements were finally loaded and analyzed for normalization and fitting procedures in Genedata Screener© software.

hTRPML1 = biological target: T1, hTRPML1 (Homo sapiens, UniProt Q9GZU1); experiment: Cellular TRPML1 assay (FLIPR, GCaMP6f calcium read-out); format: cell-based; settings: HEK T-REx/GCaMP6f/TRPML1 cells, FLIPR TETRA, kinetic response over 300 seconds; read-out: hTRPML1 FLIPR pEC50 (converted)
T1 construct: expressed in transfected cells
Experimental: Buffers and reagents • PBS (D-PBS without calcium and magnesium; EuroClone) • Trypsin (Trypsin 0.05%, EDTA 0.02% in PBS; EuroClone) • DMSO (Sigma) • Ca^2+ free Tyrode's buffer: in-house solution (130 mM NaCl, 5 mM KCl, 1 mM MgCl2, 5 mM NaHCO3, 20 mM HEPES in water at pH 7.4; sterile filtered). • Opti-MEM (Gibco) • Agonist: ML-SA1 (Sigma); stock: 60 mM in DMSO, stored at −20° C. • Blocker: ML-SI3 (in house synthesis); stock: 20 mM in DMSO, stored at −20° C.
Cell line • The final clone for the TRPML1 assay is HEK T-REx/GCaMP6f/TRPML1. • GCaMP6f is a genetically encoded calcium indicator that is stably expressed in this cell line and used as a fluorescent read-out.
Cells are seeded at 15000 cells/well either in 25 µl/well of growth medium or in 20 μl/well of Optimem+0.5% FBS without selection antibiotics. Twenty-four hours later, cells are assayed for the response to various compounds using the Ca^2+ sensitive GCaMP6f protein stably expressed in the cells as readout.
The experiment is performed in a 384-well format according to the following procedures for either Ca^2+ free or Optimem conditions: • Ca^2+ free condition (in absence of extracellular Ca^2+): • 24 h after seeding, pre-incubate the cells at room temperature for about 10′. • Then remove the culture medium and replace it with 20 μL of Ca^2+ free Tyrode's buffer. • Start the experiment at the FLIPR^TETRA by injecting 10 μL/w of 3× concentrated test compounds and controls in Ca^2+ free Tyrode's buffer. Monitor the kinetic response over a period of 300 seconds. • Final DMSO concentration: 0.5% • Optimem condition (in presence of extracellular Ca^2+): • 24 h after seeding, pre-incubate the cells at room temperature for about 10′. • Start the experiment at the FLIPR^TETRA by injecting 10 μL/w of 3× concentrated test compounds and controls in Ca^2+ free Tyrode's buffer. Monitor the kinetic response over a period of 300 seconds. • Final DMSO concentration: 0.5%
Data from FLIPR^TETRA measurements are analyzed with the Genedata Screener© software.

T1 sequence (Q9GZU1 whole entry): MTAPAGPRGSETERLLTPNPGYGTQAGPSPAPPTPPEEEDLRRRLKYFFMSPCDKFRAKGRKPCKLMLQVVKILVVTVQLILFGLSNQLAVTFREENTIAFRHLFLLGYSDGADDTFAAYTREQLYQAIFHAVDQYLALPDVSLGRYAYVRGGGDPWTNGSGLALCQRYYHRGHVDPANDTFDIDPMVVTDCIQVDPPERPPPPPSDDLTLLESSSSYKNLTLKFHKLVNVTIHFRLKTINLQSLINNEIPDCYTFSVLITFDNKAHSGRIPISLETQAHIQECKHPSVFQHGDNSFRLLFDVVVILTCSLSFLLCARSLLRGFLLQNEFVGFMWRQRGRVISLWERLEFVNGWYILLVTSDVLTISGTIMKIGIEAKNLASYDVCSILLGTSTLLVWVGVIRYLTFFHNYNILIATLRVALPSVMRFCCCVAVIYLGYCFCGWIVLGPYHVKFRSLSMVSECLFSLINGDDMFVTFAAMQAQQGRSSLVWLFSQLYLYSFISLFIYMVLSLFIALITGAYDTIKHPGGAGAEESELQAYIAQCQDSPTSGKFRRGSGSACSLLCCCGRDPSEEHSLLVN

SMILES | EC50 [1] | EC50 (hTRPML1)
CN(C)S(=O)(=O)c1ccc(S(=O)(=O)Nc2ccccc2N2CCCC(OCc3ccccc3)C2)cc1 (racemic) [Example 25, N^1-(2-(3-(benzyloxy)piperidin-1-yl)phenyl)-N^4,N^4-dimethylbenzene-1,4-disulfonamide] | 1000 to 3160 nM | 1000 to 3160 nM
CN(C)S(=O)(=O)c1ccc(S(=O)(=O)Nc2ccccc2N2CCCC(Oc3ccccc3)C2)cc1 (racemic) [Example 28, N^1,N^1-dimethyl-N^4-(2-(3-phenoxypiperidin-1-yl)phenyl)benzene-1,4-disulfonamide] | < 1000 nM | 1000 to 3160 nM
CN(C)S(=O)(=O)c1ccc(S(=O)(=O)Nc2ccccc2N2CCCC(COc3ccccc3)C2)cc1 (racemic) [Example 34, N^1,N^1-dimethyl-N^4-(2-(3-(phenoxymethyl)piperidin-1-yl)phenyl)benzene-1,4-disulfonamide] | 1000 to 3160 nM | 1000 to 3160 nM
CN(C)S(=O)(=O)c1ccc(C(=O)N(c2ccccc2N2CCC(Oc3ccccc3)CC2)C2CCCC2)cc1 [Example 1, N-cyclopentyl-4-(N,N-dimethylsulfamoyl)-N-(2-(4-phenoxypiperidin-1-yl)phenyl)benzamide] | < 1000 nM | 1000 to 3160 nM
CN(C)S(=O)(=O)c1ccc(C(=O)N(c2ccccc2N2CCC(Oc3ccccc3)CC2)C2CCC2)cc1 [Example 2, N-cyclobutyl-4-(N,N-dimethylsulfamoyl)-N-(2-(4-phenoxypiperidin-1-yl)phenyl)benzamide] | < 1000 nM | 1000 to 3160 nM
CCS(=O)(=O)c1ccc(S(=O)(=O)Nc2ccccc2N2CCC(Oc3ccccc3)CC2)cc1 [Example 6, 4-(ethylsulfonyl)-N-(2-(4-phenoxypiperidin-1-yl)phenyl)benzenesulfonamide] | > 3160 nM | > 3160 nM
CN(C)S(=O)(=O)c1ccc(S(=O)(=O)Nc2cccc(F)c2N2CCC(Oc3ccccn3)CC2)cc1 [Example 8, N^1-(3-fluoro-2-(4-(pyridin-2-yloxy)piperidin-1-yl)phenyl)-N^4,N^4-dimethylbenzene-1,4-disulfonamide] | < 1000 nM | < 1000 nM
O=S(=O)(Nc1cccc(F)c1N1CCC(Oc2ccccn2)CC1)c1ccc(C(F)(F)F)cc1 [Example 10, N-(3-fluoro-2-(4-(pyridin-2-yloxy)piperidin-1-yl)phenyl)-4-(trifluoromethyl)benzenesulfonamide] | 1000 to 3160 nM | 1000 to 3160 nM
Cc1ccc(N2CCC(Oc3ccccn3)CC2)c(N(C(=O)c2ccc(S(=O)(=O)N(C)C)cc2)C2CCCC2)c1 [Example 16, N-cyclopentyl-4-(N,N-dimethylsulfamoyl)-N-(5-methyl-2-(4-(pyridin-2-yloxy)piperidin-1-yl)phenyl)benzamide] |  | 1000 to 3160 nM
CC(C)(C)OC(=O)N1CCN(c2ccccc2NS(=O)(=O)c2ccc(C(F)(F)F)cc2)CC1 [Example 17, tert-butyl 4-(2-((4-(trifluoromethyl)phenyl)sulfonamido)phenyl) piperazine-1-carboxylate] | < 1000 nM | 1000 to 3160 nM
Cc1ccc(S(=O)(=O)Nc2ccccc2N2CCN(C(=O)OC(C)(C)C)CC2)c(F)c1 [Example 18, tert-butyl 4-(2-((2-fluoro-4-methylphenyl)sulfonamido)phenyl)piperazine-1-carboxylate] |  | > 3160 nM
Cc1ccc(S(=O)(=O)Nc2ccccc2N2CCN(C(=O)OC(C)(C)C)CC2)cc1F [Example 19, tert-butyl 4-(2-((3-fluoro-4-methylphenyl)sulfonamido)phenyl)piperazine-1-carboxylate] | > 3160 nM | 1000 to 3160 nM
Cc1ccc(C)c(S(=O)(=O)Nc2ccccc2N2CCN(C(=O)OC(C)(C)C)CC2)c1 [Example 20, tert-butyl 4-(2-((2,5-dimethylphenyl)sulfonamido)phenyl)piperazine-1-carboxylate] |  | > 3160 nM
CC(C)(C)OC(=O)N1CCN(c2ccccc2NS(=O)(=O)c2ccc(OC(F)(F)F)cc2)CC1 [Example 21, tert-butyl 4-(2-((4-(trifluoromethoxy)phenyl)sulfonamido)phenyl) piperazine-1-carboxylate] |  | > 3160 nM
Cc1ccc(S(=O)(=O)Nc2c(C)cccc2N2CCN(C(=O)OC(C)(C)C)CC2)cc1 [Example 22, tert-butyl 4-(3-methyl-2-((4-methylphenyl)sulfonamido)phenyl)piperazine-1-carboxylate] | > 3160 nM | 1000 to 3160 nM
CN(C)S(=O)(=O)c1ccc(S(=O)(=O)Nc2ccccc2N2CCCCCCC2)cc1 [Example 24, N1-(2-(azocan-1-yl)phenyl)-N4,N4-dimethylbenzene-1,4-disulfonamide] |  | 1000 to 3160 nM
CN(C)S(=O)(=O)c1ccc(S(=O)(=O)Nc2cccc(F)c2N2CCC(C)(c3ccccc3)CC2)cc1 [Example 37, N^1-(3-fluoro-2-(4-methyl-4-phenylpiperidin-1-yl)phenyl)-N^4,N^4-dimethylbenzene-1,4 disulfonamide] |  | < 1000 nM
Cc1ccc(S(=O)(=O)Nc2ccccc2N2CCN(C(=O)Oc3ccccc3)CC2)cc1C [Example 39, phenyl 4-(2-((3,4-dimethylphenyl)sulfonamido)phenyl) piperazine-1-carboxylate] |  | > 3160 nM
Cc1ccc(S(=O)(=O)Nc2ccccc2N2CCN(C(=O)CC(C)(C)C)CC2)cc1C [Example 41, N-(2-(4-(3,3-dimethylbutanoyl)piperazin-1-yl)phenyl)-3,4-dimethylbenzenesulfonamide] |  | > 3160 nM
CC(C)(C)CC(=O)N1CCN(c2ccccc2NS(=O)(=O)c2ccc(C(F)(F)F)cc2)CC1 [Example 42, N-(2-(4-(3,3-dimethylbutanoyl)piperazin-1-yl)phenyl)-4-(trifluoromethyl)benzenesulfonamide] |  | > 3160 nM
CN(C)S(=O)(=O)c1ccc(S(=O)(=O)Nc2cccc(F)c2N2CCC(Oc3ccc(C(F)(F)F)cn3)CC2)cc1 [Example 43, N^1-(3-fluoro-2-(4-((5-(trifluoromethyl)pyridin-2-yl)oxy)piperidin-1-yl)phenyl)-N^4,N^4-dimethylbenzene-1,4-disulfonamide] |  | < 1000 nM
CN(C)S(=O)(=O)c1ccc(S(=O)(=O)Nc2cccc(F)c2N2CCC(Oc3ccc(Cl)cn3)CC2)cc1 [Example 44, N^1-(2-(4-((5-chloropyridin-2-yl)oxy)piperidin-1-yl)-3-fluorophenyl)-N^4,N^4-dimethylbenzene-1,4-disulfonamide] |  | < 1000 nM
CN(C)S(=O)(=O)c1ccc(S(=O)(=O)Nc2cccc(F)c2N2CCC(Oc3ncc(Cl)cc3F)CC2)cc1 [Example 45, N^1-(2-(4-((5-chloro-3-fluoropyridin-2-yl)oxy)piperidin-1-yl)-3-fluorophenyl)-N^4,N^4-dimethylbenzene-1,4-disulfonamide] |  | < 1000 nM
